This note sets out measurements from patent publication US20250100962A1 (CITY OF HOPE, priority 2023, published 2025).

Molecules are shown by their SMILES. Entries after “also recorded” stand apart in the source; their conditions may differ.

For series [1], the system named is primary bone marrow-derived macrophages. The series can be described thus: NLRP3 inflammasome and CHOP expression in primary bone marrow-derived macrophages. Format: cell-based. To be noted: for NLRP3 and CHOP with LPS stimulation: LPS challenge; for NLRP3 expression, basal unstimulated: immunoblot. An excerpt:
FIGS. 46A-46D. […] Chronic inflammation in dystrophic muscle, due to the persistent muscle damage with sustained degeneration and regeneration cycles, is a significant component of the pathogenic characteristics of muscular dystrophy contributing to muscle wasting. We thus determined potential ameliorative effects of CHX and CM002 on muscle inflammation in the mdx mice.

For series [2], the system named is human primary myoblasts derived from DMD patients. The series is described as follows: MTT cell viability of human DMD primary myoblasts. It counts as cell-based. On the procedure: Cells were seeded at 5×10^4 concentration in 100 μl culture medium into 96 wells flat bottom microplates and treated after 24 h with desired compounds and controls. After desired incubation periods, cells were treated with MTT labeling reagent 1× (MTT (3-[4,5-dimethylthiazol-2-yl]-2,5-diphenyltetrazolium bromide labeling reagent, 5 mg/ml in PBS, Roche Cell Proliferation Kit I (MTT)) and Solubilization buffer 1× (10% SDS in 0.01 M HCl and left overnight. Next morning absorbance was measured at 570 nm and 700 nm on microplate (ELISA) reader (TECAN infinite M200pro). The mean and standard deviation values were calculated for each well and graphed.
FIGS. 41A-41D. Effect of Chlorhexidine (CHX) and CM002 treatment on viability of mouse and human myoblasts. To determine potential toxic effects of CHX and CM002, we treated mouse C2C12 myoblast cell line with increasing concentrations from 0.2-5 μM for 48 hours and determined cell viability using the MTT assay (FIG. 41A). […] Considering the inflammatory milieus in dystrophic muscles, we further tested the tolerance of myoblasts to these molecules in the presence of inflammatory stimuli, a cytokine cocktail (CC) consisted of 10 ng/mL IL-1β, 100 ng/mL IFN-γ and 25 ng/mL of TNF-α (FIG. 41B). […] Lastly, human primary myoblasts derived from Duchene Muscular Dystrophy (DMD) patients were used to determine their tolerance to these compounds.

Another series has as its system primary preadipocytes. The series is described as follows: Adipogenic differentiation of primary preadipocytes. To be noted: for mature adipocyte formation: 0.5 and 1 μM. It counts as cell-based, mice. The procedure:
Primary preadipocyte isolation and adipogenic induction. The stromal vascular fraction containing preadipocytes were isolated from subcutaneous fat pads, as described (Chatterjee, Nam, Guo et al., 2013). Briefly, fat pads were cut into pieces and digested using 0.1% collagenase Type 1 with 0.8% BSA at 37° C. in a horizontal shaker for 60 minutes, passed through Nylon mesh and centrifuged to collect the pellet containing the stromal vascular fraction with preadipocytes. Preadipocytes were cultured in F12/DMEM supplemented with bFGF (2.5 ng/ml), expanded for two passages and subjected to differentiation in 6-well plates at 90% confluency. Adipogenic differentiation was induced for 2 days in medium containing 10% FBS, 1.6 μM insulin, 1 μM dexamethasone, 0.5 mM IBMX, 0.5 μM rosiglitazone before switching to maintenance medium for 4 days with insulin only. Nobiletin at indicated concentrations were added for the entire differentiation time course. Oil-red-O and Bodipy staining. These stainings for neutral lipids during adipogenic differentiation were performed as previously described (Nam et al., 2015). Briefly, for oil-red-O staining, cells were fixed using 10% formalin and incubated using 0.5% oil-red-O solution for 1 hour. Bodipy 493/503 was used at 1 mg/L together with DAPI for 15 minutes, following 4% paraformaldehyde fixation and permeabilization with 0.2% triton-X100. Immunoblot analysis. Total protein was extracted using lysis buffer containing 3% NaCl, 5% Tris-HCl, 10% Glycerol, 0.5% Triton X-10 in MilliQ water with protease inhibitor cocktail. 20-40 μg of total protein was resolved on 10% SDS-PAGE gels followed by immunoblotting on PVDF membranes (Bio-rad). Membranes were developed by chemiluminescence (SuperSignal West Pico, Pierce Biotechnology) and signals were obtained via a chemiluminescence imager (Amersham Imager 680, GE Biosciences).

In another series the test system is mdx mice. The series is described as follows: Direct intramuscular injection into Tibialis Anterior muscle of mdx mice. Format: in vivo, mouse. To be noted: for Evans Blue Dye (EBD) positive area (muscle damage): 150 ul of 2 uM daily for 3 days; for amount of satellite cells / satellite cell proliferation (EdU+/Pax7+ within Pax7+ pool): 150 μl of 2 μM daily for three days; for transcript levels of clock regulators and myogenic factors / expression of pro-inflammatory cytokines TNF-α, IL-6 and iNOS: RT-qPCR; for transcript levels of clock regulators and myogenic factors: mdx muscle; for expression of pro-inflammatory cytokines TNF-α, IL-6 and iNOS: mdx TA muscle, 3 daily doses; for reduction of creatine kinase (CK) levels, ex vivo TA explants: media of TA explant cultured 24 hours; for myofiber size distribution (cross section area) / Pax7 and CyclinD1 / new myofiber formation (eMyHC staining) / protein levels of clock regulators Bmal1, CLOCK, Rev-erbα / protein levels of myogenic factors: three daily doses; for Pax7 and CyclinD1 / new myofiber formation (eMyHC staining) / protein levels of clock regulators Bmal1, CLOCK, Rev-erbα / protein levels of myogenic factors: 50 μl of 2 μM. An excerpt: FIGS. 17A-17C. In vivo effect of chlorhexidine on inducing regenerative repair of mdx dystrophic muscle. Based on the effects of CHX on promoting myogenic differentiation, we postulated that it may enhance myogenesis in vivo to promote regenerative repair in dystrophic muscle. […] FIG. 17A: Initial preliminary data was obtained from mice injected with one or two injections (one day apart) of CHX dissolved in DMSO. […] FIG. 17B: Next, we further tested the in vivo effect of CHX by three doses using PBS solution to avoid potential membrane damage by DMSO. […] FIG. 17C: Lastly, we examined the effect of triple CHX injection on clock and myogenic factor proteins in individual and individual mdx muscle. […] Variability observed between individual mice could be due to the in vivo injection.
FIG. 18. In vivo effect of chlorhexidine on inducing nascent myofiber regeneration of mdx dystrophic muscle. To directly examine effect of CHX in vivo injection on dystrophic muscle repair, we performed immunofluorescence staining of embryonic myosin heavy chain (eMyHC) to identify nascent regenerated myofiber using frozen TA cross sections from mdx mice following triple injections. Laminin staining was used to delineate basal lamina of myofiber.
FIGS. 43A-43D. CHX and CM002 promote regenerative myogenesis in dystrophic mdx mice. Based on the effect of CHX and CM002 on promoting regenerative myogenesis, we next tested whether they exert protective effects in dystrophic disease conditions via local intramuscular delivery in the mdx mice, an established model for muscular dystrophy.
FIGS. 44A-44D. CM002 and CHX stimulate satellite cell proliferative expansion and myogenic gene induction in mdx mice. As Pax7 and CyclinD1 levels were increased by CM002 and CHX in mdx TA, we directly examined the proliferation of satellite cells via EdU labeling with co-staining for Pax7 to identify satellite cells.
FIGS. 45A-45D. CM002 and CHX protects against dystrophic muscle damage in mdx mice. Given that local delivery of CHX and CM002 stimulated new myofiber formation to promote regenerative repair, we next examined whether these effects lead to protection against dystrophic injury. […] Most importantly, using ex vivo TA explants, we determined creatine kinase secretion from treated TA muscles as a direct indicator to assess muscle injury.
FIGS. 46A-46D. CHX and CM002 ameliorate inflammatory milieu of muscular dystrophy. Chronic inflammation in dystrophic muscle, due to the persistent muscle damage with sustained degeneration and regeneration cycles, is a significant component of the pathogenic characteristics of muscular dystrophy contributing to muscle wasting. We thus determined potential ameliorative effects of CHX and CM002 on muscle inflammation in the mdx mice. […] To further test whether the reduction of inflammation in muscle could be due to direct modulation of macrophage pro-inflammatory activities, we determined CHX and CM002 effects in primary bone marrow-derived macrophages.

`[H]/N=C(\N/C(=N/[H])NCCCCCCNC(=N)NC(=N)Nc1ccc(Cl)cc1)Nc1ccc(Cl)cc1` [CHX, chlorhexidine]: in series [1], the “concentration inducing CHOP (ER stress marker)” value is no less than 1000 nM; the “NLRP3 and CHOP with LPS stimulation” value was “failed to inhibit NLRP3 inflammasome and displayed stimulatory effect at high concentrations accompanied with CHOP induction”; the “NLRP3 expression, basal unstimulated” value is “able to attenuate its expression”. In addition, in series [2] (with cytokine cocktail), the “concentration up to which viability is not significantly compromised” value is “up to 5 μM”. Besides, in the series on primary preadipocytes (day 6 of differentiation), the “FASN, terminal differentiation marker” value is on record as “markedly attenuated the terminal differentiation marker of adipocytes, FASN” and the adipogenic factor induction result is given as “only resulted in a tendency toward suppressing adipogenic factor induction”. The mature adipocyte formation result in the series on primary preadipocytes (six days of differentiation) is recorded as “dose-dependent, marked effect on suppressing mature adipocyte formation”. Moreover, in the series on mdx mice, the “Evans Blue Dye (EBD) positive area (muscle damage)” value is listed as “significantly reduced the areas stained positive for EBD”; the “amount of satellite cells” value was “not significantly altered”; the “satellite cell proliferation (EdU+/Pax7+ within Pax7+ pool)” value is on record as “sufficient to stimulate satellite cells proliferative expansion in dystrophic muscle to a similar degree”; the “transcript levels of clock regulators and myogenic factors” value was “corresponding increase of their transcript levels”. Also, in the series on mdx mice, the “expression of pro-inflammatory cytokines TNF-α, IL-6 and iNOS” value is on record as “consistent reduction of expression of the pro-inflammatory cytokines examined”; the “reduction of creatine kinase (CK) levels, ex vivo TA explants” value was “approximately 50%”; the “myofiber size distribution (cross section area)” value is “striking left shift toward smaller myofibers”; the “Pax7 and CyclinD1” value was “also induced”. For the same compound, in the series on mdx mice, the “new myofiber formation (eMyHC staining)” value was “increased new myofiber formation”; the “protein levels of clock regulators Bmal1, CLOCK, Rev-erbα” value is reported as “significantly elevated”; the “protein levels of myogenic factors” value is “elevated protein levels of myogenic factors”. The “protein expression of clock regulators (CLOCK, Rev-erbα) and myogenic factors (Myf5, Myogenin)” value in the series on mdx mice (one or two injections, 50 μl of 2 μM in DMSO) was “stronger inductions by two doses”. Also, in the series with mdx mice (three doses in PBS, pooled samples), the Pax7 protein entry is recorded as “strongly induced”. In addition, the “myogenic factors and Bmal1 protein in individual mdx muscle” value in the series on mdx mice (triple injection, n=3) was “two of three mice injected with CHX demonstrated marked inductions of myogenic factors together with up-regulation of Bmal1 protein”. In the series on mdx mice (triple injections, vs PBS), the “eMyHC staining (nascent regenerated myofiber)” value was “robust eMyHC indicative of newly-regenerated myofibers”.

For `CCCCCC/C=N/C(=N)NC(=N)Nc1ccc(Cl)cc1` [CM002], in series [1], the “NLRP3 and CHOP with LPS stimulation” value is listed as “suppressed NLRP3 in the presence of LPS without inducing CHOP”; the “NLRP3 expression, basal unstimulated” value is on record as “able to attenuate its expression”. For the same compound, in series [2] (human, 5 μM), the “cell death at 5 μM” value was “displaying sensitivity to cell death by CM002 treatment at this concentration”. In addition, in the series on primary preadipocytes (six days of differentiation), the “reduction of adipocyte formation in Bmal1-deficient (BMKO) preadipocytes” value is given as “severely blunted”; the mature adipocyte formation entry is “strongly inhibited their differentiation; also recorded: dose-dependent reductions by CM002 at 0.5 and 1 μM concentration”. In the series with primary preadipocytes (vs presence throughout differentiation), the “adipocyte formation, compound given after initial two days of adipogenic induction” value is listed as “still retained its efficacy of blocking adipocyte formation largely to the same extent”. Besides, in the series with mdx mice, the “Evans Blue Dye (EBD) positive area (muscle damage)” value is “significantly reduced the areas stained positive for EBD”; the “amount of satellite cells” value is “not significantly altered”; the “satellite cell proliferation (EdU+/Pax7+ within Pax7+ pool)” value was “sufficient to stimulate satellite cells proliferative expansion in dystrophic muscle to a similar degree”; the “transcript levels of clock regulators and myogenic factors” value is “corresponding increase of their transcript levels”. Moreover, in the series with mdx mice, the “expression of pro-inflammatory cytokines TNF-α, IL-6 and iNOS” value is listed as “consistent reduction of expression of the pro-inflammatory cytokines examined”; the “reduction of creatine kinase (CK) levels, ex vivo TA explants” value is listed as roughly 35%; the “myofiber size distribution (cross section area)” value is listed as “striking left shift toward smaller myofibers”; the “Pax7 and CyclinD1” value is “also induced”. In the series on mdx mice, the “new myofiber formation (eMyHC staining)” value was “increased new myofiber formation”; the “protein levels of clock regulators Bmal1, CLOCK, Rev-erbα” value is listed as “significantly elevated with stronger effect by CM002”; the “protein levels of myogenic factors” value was “elevated protein levels of myogenic factors”.
